Reference: article PMC9258070, “Establishment and evaluation of glucose-modified nanocomposite liposomes for the treatment of cerebral malaria” (Journal of Nanobiotechnology, 2022)
Counter-ions that a name gives are not always drawn.

Assays:
[1] = Pharmacokinetic study in plasma (LC-MS); details: C57BL/6, mouse
Experimental: (§1) The C57BL/6 mouse cerebral malaria model was established according to the method of “In vivo antimalarial experiment”. The model mice were randomly divided into the intranasal administration group (na-ATS/TMP@lipoBX) and tail vein injection group (iv-ATS/TMP@lipoBX). The dosage of each administration group was artesunate (ATS) 15.6 mg/kg and tetramethylpyrazine hydrochloride (TMP) 20.8 mg/kg.
Blood samples were collected at 5 min, 10 min, 15 min, 30 min, 45 min, 1 h, 2 h, 4 h, 8 h, 12 h and 24 h after administration. These samples were immediately placed in a tube containing heparin sodium (1000 U/mL). Plasma samples were obtained after centrifugation at 4000 rpm for 10 min and an esterase inhibitor was added to the samples. Subsequently, methanol was added to the plasma in the ratio of 1:2 (plasma-methanol) and centrifuged at 14,000 rpm for 5 min to obtain liquid supernatant for quantitative analysis by LC–MS.
(§2) LC conditions were as follows: column: Waters UPLC BEH C18 column (1.7 μm, 2.1 mm × 50 mm); mobile phase: water (0.1% formic acid and 5 mM ammonium formate)-acetonitrile (85:15, v/v), flow rate: 0.3 ml/min; column temperature: 35 ℃. Mass spectrum conditions were as follows: electric spray ion source (ESI); multiple response monitoring (MRM) mode; positive ion scanning mode; air curtain pressure (N2) was 40 psi, impact air pressure (N2) was 9 psi, atomization gas pressure (N2) was 55 psi, auxiliary gas pressure (N2) was 55 psi; spray voltage was 5500 V; atomization temperature was 550 ℃.

[2] = Brain biodistribution study (LC-MS); details: C57BL/6, mouse
Experimental: as §1
Mice were euthanized and the brains were dissected. The brain samples were homogenized by adding 4 times their weight of physiological saline to prepare a tissue homogenate. The brain homogenates were processed according to the processing method for the plasma sample, and LC–MS quantitative analysis was carried out.
as §2

[3] = Solubility of the conjugate (description); format: physicochemical

SMILES | bioavailability ([1]; in vivo) [%] | Tmax ([2]; brain, inhaled or intranasal) [min] | Tmax ([2]; brain, iv) [min] | bioavailability ([2]; brain, other: intranasal) [%] | other results
C[C@H]1[C@H](OC(=O)CCC(=O)O)O[C@@H]2O[C@@]3(C)CC[C@H]4[C@H](C)CC[C@@H]1[C@@]24OO3 [ATS, artesunate] | ~91 | 210 ± 60 | 495 ± 311 | ~415 | Tmax ([1]; plasma, inhaled or intranasal): 144 ± 225 min; Tmax ([1]; plasma, iv): 17.5 ± 18.5 min
C[C@H]1[C@@H](O)O[C@@H]2O[C@@]3(C)CC[C@H]4[C@H](C)CC[C@@H]1[C@@]24OO3 [DHA, dihydroartemisinin] | – | 23.8 ± 17 | 7.5 ± 2.88 | ~449 | –
Cc1nc(C)c(C)nc1C [TMP, tetramethylpyrazine hydrochloride] | ~97 | – | – | – | Tmax ([1]; in vivo, inhaled or intranasal): 4.98 min; Tmax ([1]; in vivo, iv): 6.24 ± 2.52 min; bioavailability ([2]; in vivo): ~183%; Tmax ([2]; in vivo, inhaled or intranasal): 4.98 min; Tmax ([2]; in vivo, iv): 4.98 min
CC(C)CCCC(C)C1CCC2C3CC=C4CC(OC(=O)CCCCCCCCCCOc5ccc(OC6OC(CO)C(O)C(O)C6O)cc5)CCC4(C)C3CCC12C (stereo not shown) [cholesterol-undecanoate-glucose conjugate] | – | – | – | – | solubility [3]: soluble in ethanol and tetrahydrofuran
